The text below walks through data of patent US7012127B1, “Analogues of lipopolysaccharide-binding protein (LBP)-derived peptides that efficiently neutralize lipopolysaccharides (LPS)” (Centro de Ingenicria Genetica y Biotecnologia, priority 1999, dated 2006).

The subject of assay [1] is interaction between hLBP and E. coli LPS. The assay can be described thus: ELISA: binding of biotinylated-LPS to surface-captured human LBP in the presence of peptides. The conditions noted are these: LPS and peptide incubated 2 h at room temperature; fixed quantities of peptide. The text has this:
This example describes the capacity of preferred peptides of the invention to block the interaction between LBP and E. coli LPS. An ELISA was used to determine the binding of biotinylated-LPS to surface-captured human LBP, in the presence or absence of fixed quantities of the selected peptides. LPS was biotinylated according to standard procedures. Human LBP (hLBP) was captured by using a specific monoclonal antibody, purified by affinity chromatography. Mixtures of LPS and each peptide were incubated during 2 h at room temperature, and then 100 μL were added to hLBP-containing wells. The binding of biotinylated-LPS to hLBP was detected with horseradish peroxidase-conjugated streptavidin. The assay was developed by adding a chromogenic substrate. […] Each experiment recorded the interaction of hLBP and biotinylated-LPS in absence of peptides, in presence of LBP86-99, and in the example presented in FIG. 2 the effect of a non-related cationic peptide (C5,3).
Human LBP was captured to the plates using a specific monoclonal antibody. Binding of biotinylated-LPS was detected with an streptavidin-horseradish peroxidase conjugate. The extent to which the peptide LBP86-99 (LBP) inhibits this interaction is also shown.
The experimental conditions were similar to those described in FIG. 1. The effect of a non-related cationic peptide, C5,3 is also included.

Assay [2] has as its system E. coli LPS lethal challenge in BALB/c mice. Put plainly: Endotoxin shock model in Actinomycin D-sensitized mice, survival. The conditions noted are these: Actinomycin D 7.5 μg i.p., E. coli LPS 1 μg/mouse mixed with peptide (1 h, 37° C.), equimolar doses, survival over 120 h, p<0.05 vs. vehicle or B6,1. It is filed as in vivo. As to the method:
An endotoxin shock animal model was used to determine if the peptides of this invention were able to block complex physiological responses triggered by LPS. In this model mice were sensitized with Actinomycin D to increase LPS-mediated toxic responses. With this purpose, Actinomycin D (7.5 μg) was administered i.p. to 6 to 8 weeks-old female mice. Simultaneously each mice received LPS, and survival was evaluated every 24 h during 120 h.
The effect of peptides of the present invention on mice survival was assessed by administering E. coli LPS (1 μg/mouse in saline vehicle) or LPS:peptide mixtures mixtures (previously incubated during 1 h at 37° C.) to BALB/c sensitized mice. FIG. 6 represents the results of a representative experiment where the following peptides were each administered at equimolar doses to groups of 20 mice: LBP86-99, LBPA94, LBPAs95, LBPA98 or B6, 1 (cationic, non-related peptide). […] The aforementioned in vivo neutralizing property of the peptides of the invention is relevant for their application in prophylactic or therapeutic methods for sepsis and other associated disorders.
Survival in groups of BALB/c mice treated with LBP86-99 (LBP) and B6,1 is also shown. Mice survival was recorded each 24 h during 120 h.

The subject of assay [3] is LPS-induced human peripheral blood mononuclear cells (PBMC). Put plainly: Release of TNF by LPS-induced human PBMC. It is filed as cell-based. The conditions noted are these: E. coli 0111:B4 LPS incubated with peptide 2 h at 37° C.; human LBP 200 ng/mL; TNFα in supernatants after 18 h; average of three experiments. The method, then:
In order to determine if the peptides of the present invention were able to neutralize LPS-mediated responses, their ability to reduce the release of TNF by LPS-activated human peripheral blood cells was estimated. This assay evaluates the release of TNF by LPS-induced human peripheral blood mononuclear cells (PBMC), using concentrations of LPS commonly found in septic patients. LPS was incubated with fixed concentrations of each peptide during 2 h at 37° C. and the mixtures were then added to PBMC. The culture medium was supplemented with human LBP (200 ng/mL) and plates were incubated at 37° C. in a 5% CO2 atmosphere. TNFα was measured in culture supernatants after 18 h using a human TNF-α specific ELISA. FIG. 4 represents the average results from three different experiments. […] LBPA95 and LBPA96. […] Similar results were observed when other concentrations of LPS (2 or 10 ng/mL) and hLBP (20 or 100 ng/mL) were used.
The effects on this assay of LBP86-99 (LBP), LBPA91, B6,1 and polymyxin B (PMB) are also shown.

The subject of assay [4] is LPS-stimulated human PBMC. Put plainly: LPS-induced IL-6 production in cultures of human PBMC. The conditions noted are these: at every hLBP concentrations tested. Type of assay: cell-based. As to the method:
In order to determine if the peptides of the present invention were able to neutralize LPS-mediated responses, their ability to reduce the release of TNF by LPS-activated human peripheral blood cells was estimated. This assay evaluates the release of TNF by LPS-induced human peripheral blood mononuclear cells (PBMC), using concentrations of LPS commonly found in septic patients. LPS was incubated with fixed concentrations of each peptide during 2 h at 37° C. and the mixtures were then added to PBMC. The culture medium was supplemented with human LBP (200 ng/mL) and plates were incubated at 37° C. in a 5% CO2 atmosphere. TNFα was measured in culture supernatants after 18 h using a human TNF-α specific ELISA. […]
This invention provides peptides with advantageous functions over other LBP-derived peptides that have the native sequence or different a.a. replacements to those herein described at positions +1, +5, +6, +7, +9, +10, +11, +12 and +13. […] IL-6 was measured in culture supernatants after 18 h using a human IL-6 specific ELISA. In the represented experiment, the following peptides were evaluated; LPB86-99, LBP-H (LBP86-101, SEQ ID NO. 56)^13, LBPA94, LBPA95, and LBPA98. […]
Results are expressed as % inhibition of IL-6 release compared with the cytokine production in the absence of peptides The effects on this assay of LBP86-99, (LBP), LBP-H and B6,1 are also shown.

On to “LBPA86: LBP 86-99 peptide analogue, SEQ ID No.2 (AVQGRWKVRKSFFK)”, for which the “interaction between hLBP and E. coli LPS (binding of biotinylated-LPS to captured hLBP)” value (“interaction between hLBP and E. coli LPS” for short) in assay [1] is given as “notably impaired”.
As to “LBP86-99: peptide with the native sequence of the 86-99 a.a. region of human LBP mature protein (RVQGRWKVRKSFFK) [reference compound]”, the mice survival entry in assay [2] is “only marginally”. Besides, the “LPS-stimulated TNF release by human PBMC” value in assay [3] was “Reduced levels of cytokine release”.
With “LBPA98: LBP 86-99 peptide analogue, SEQ ID No.7, essential a.a. at position +13 (RVQGRWKVRKSFAK)”, in assay [2], the mice survival result was “significantly increased”. Also, the “interaction between hLBP and E. coli LPS” value in assay [1] is on record as “notably impaired”.
As for “LBPA91: peptide which has tryptophan residue at position (6) replaced with alanine, SEQ ID No.55 (RVQGRAKVRKSFFK)”, in assay [1], the “interaction between hLBP and E. coli LPS” value is given as “not affected”. The “LPS-stimulated TNF release by human PBMC” value in assay [3] is “did not inhibit”.
For “LBPA95: LBP 86-99 peptide analogue, SEQ ID No.5, essential a.a. at position +10 (RVQGRWKVRASFFK)”, the mice survival entry in assay [2] is “significantly increased”. For the same substance, the “reduction of the LPS-triggered response (IL-6)” value in assay [4] is given as “more than 70%”. In addition, the “interaction between hLBP and E. coli LPS” value in assay [1] was “notably impaired”. Also, the “LPS-stimulated TNF release by human PBMC” value in assay [3] is on record as “Reduced levels of cytokine release”.
In the case of “LBPA94: LBP 86-99 peptide analogue, SEQ ID No.4, essential a.a. at position +9 (RVQGRWKVAKSFFK)”, in assay [2], the mice survival result is recorded as “significantly increased”. Besides, the “interaction between hLBP and E. coli LPS” value in assay [1] was “notably impaired”. Besides, the “LPS-stimulated TNF release by human PBMC” value in assay [3] is “Reduced levels of cytokine release”.
On to “LBPA97: peptide with a residue at +6, +7 or +12 distinct from those of the invention, SEQ ID No.54 (RVQGRWKVRKSAFK)”, for which the “interaction between hLBP and E. coli LPS” value in assay [1] is “not affected”.
The same measure, in the same setting: for “LBPA92: peptide with a residue at +6, +7 or +12 distinct from those of the invention, SEQ ID No.53 (RVQGRWAVRKSFFK)” the value was “not affected”.
As for “LBPA96: LBP 86-99 peptide analogue, SEQ ID No.6 (RVQGRWKVRKAFFK)”, in assay [1], the “interaction between hLBP and E. coli LPS” value was “notably impaired”. Moreover, the “LPS-stimulated TNF release by human PBMC” value in assay [3] is on record as “Reduced levels of cytokine release”.
On to “LBPA90: LBP 86-99 peptide analogue, SEQ ID No.3 (RVQGAWKVRKSFFK)”, for which the “interaction between hLBP and E. coli LPS” value in assay [1] was “notably impaired”.
